Target: E3 ubiquitin-protein ligase XIAP (Homo sapiens, UniProt P98170)
Test: XIAP antagonists, biochemical, IAP family, fluorescence polarization (AID 1018)

Sequence of E3 ubiquitin-protein ligase XIAP (P98170 whole entry): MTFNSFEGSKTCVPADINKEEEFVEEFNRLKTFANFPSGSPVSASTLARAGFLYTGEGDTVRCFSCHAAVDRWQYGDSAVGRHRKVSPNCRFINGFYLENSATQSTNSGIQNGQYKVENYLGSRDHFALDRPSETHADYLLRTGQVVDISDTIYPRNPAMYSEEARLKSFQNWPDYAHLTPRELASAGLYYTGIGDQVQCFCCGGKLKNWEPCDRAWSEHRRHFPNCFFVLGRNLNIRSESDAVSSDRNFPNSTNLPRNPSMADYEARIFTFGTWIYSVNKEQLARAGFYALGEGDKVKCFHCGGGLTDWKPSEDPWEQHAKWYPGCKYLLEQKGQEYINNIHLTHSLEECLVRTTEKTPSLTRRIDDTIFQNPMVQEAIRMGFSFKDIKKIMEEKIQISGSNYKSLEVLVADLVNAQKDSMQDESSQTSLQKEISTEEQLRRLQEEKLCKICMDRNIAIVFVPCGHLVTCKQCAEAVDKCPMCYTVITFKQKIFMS

SMILES	IC50
COc1cc(CN=Nc2nc(Nc3ccc(C)cc3)nc(-n3nc(C)cc3C)n2)cc(OC)c1OC	> 100 µM
COc1cc(CN=Nc2cc(C)nc(NS(=O)(=O)c3ccc(C)cc3)n2)ccc1O	> 100 µM
Cc1cc(=O)[nH]c(N=NC(CC(C)C)CC(C)C)n1	> 100 µM
O=C(O)c1cccc(-n2c(O)c3c(c2O)CC(Cl)=CC3)c1 [3-[5-chloranyl-1,3-bis(oxidanylidene)-3a,4,7,7a-tetrahydroisoindol-2-yl]benzoic acid]	> 100 µM
COc1ccc(C(=O)C2C(=O)C(=O)N(CC3CCCO3)C2c2cccc(OC)c2)cc1 (stereo not given) [(4Z)-4-[hydroxy-(4-methoxyphenyl)methylene]-5-(3-methoxyphenyl)-1-(tetrahydrofurfuryl)pyrrolidine-2,3-quinone]	> 100 µM
O=C(CC=Nc1ccc(Nc2ccccc2)cc1)c1cccs1 [(E)-3-(4-anilinoanilino)-1-thiophen-2-yl-2-propen-1-one]	> 100 µM
COc1cccc(C(=O)CC=Nc2cc(C)ccc2O)c1 [MLS000088060]	> 100 µM
COc1ccc(CN=Nc2nc(N3CCCC3)nc(N3CCCC3)n2)cc1 [MLS000704198]	> 100 µM
CCOc1ccccc1NC(=O)C1C(C)=NC(=S)NC1c1cccs1 (stereo not given) [N-(2-ethoxyphenyl)-6-methyl-2-sulfanylidene-4-thiophen-2-yl-3,4-dihydro-1H-pyrimidine-5-carboxamide]	> 100 µM
Cc1cccc(N(CC(N)=O)c2sc(=O)n(-c3ccccc3)c2O)c1 [SMR000009552]	> 100 µM

From BindingDB's records for doi:10.7270/Q2HD7T4S (Sanford-Burnham Center For Chemical Genomics, 2008)
